System: cholesterol biosynthesis
Test: Test A: Inhibition of cholesterol biosynthesis from acetate in vitro (rat liver microsome and sup fraction)
Type: biochemical, male Wistar rat
Settings: based on the activities of CS-514 being evaluated to be 1
Experimental: Test A: Inhibition of cholesterol biosynthesis from acetate in vitro
Enzyme solution was prepared from liver of male Wistar rat billialy cannulated and discharged bile for over 24 hours. Liver was cut out at mid-dark and microsome and supernatant fraction which was precipitable with 40-80% of saturation of ammonium sulfate (sup fraction) were prepared from liver homogenate according to the modified method of Knauss et al; Kuroda, M, et al, Biochim. Biophys. Acta, 489, 119 (1977). For assay of cholesterol biosynthesis, microsome (0.1 mg protein) and sup fraction (1.0 mg protein) were incubated for 2, hours at 37° C. in 200 μl of the reaction mixture containing ATP; 1 mM, Glutathione; 6 mM, Glucose-1-phosphate; 10 mM, NAD; 0.25 mM, NADP; 0.25 mM, CoA; 0.04 mM and 0.2 mM [2-^14 C]sodium acetate (0.2 μCi) with 4 μl of test compound solution dissolved in water or dimethyl sulfoxide. To stop reaction and saponify, 1 ml of 15% EtOH-KOH was added to the reactions and heated at 75° C. for 1 hour. […] Inhibitory activity of compounds was indicated with IC50.

| SMILES | Relative activities by Test A |
| --- | --- |
| CCOC(=O)CC(O)CC(O)/C=C/c1c(CC)nc2ccccc2c1-c1ccc(F)cc1 (centres unmarked) [I-117] | 0.37 |
| CC(C)c1nc2c(Cl)cc(Cl)cc2c(-c2ccc(F)cc2)c1/C=C/C(O)CC(O)CC(=O)O (centres unmarked) [I-522] | 0.76 |

Source: patent US5872130A, “Quinoline type mevalonoactones” (Nissan Chemical Industries Ltd., priority 1988, dated 1999)
